“Also recorded” adds a separate entry of the source.
Tests used:
Format in all cases: cell-based, human
[1] = system: c-Myc; experiment: c-Myc protein expression in SNU-398 cells
Protocol: Also tested was whether wt peptide could affect genes that were known to be activated by SALL4, such as c-Myc. SNU-398 cells treated with wt or Scr peptide were evaluated for c-Myc protein expression. No change was observed among SNU-398 cells that were not treated or treated with either wt, Scr or TSA. When combined, the observation on the biological effects of the peptide treatment and the expression of Pten/Akt pathway in these cells, it was noticed that the wt peptide and its role in cell death promotion was correlated to its effect on the expression levels of Pten/Akt.

[2] = system: SNU-398 cells; experiment: Cell viability assay (MTT/MTS); conditions: for cell viability / number of viable cells: SNU-398 (high SALL4), 72 h; for cell viability upon SALL4 knockdown: SNU-398, MTS
Protocol: Cell viability was determined 72 hours after peptide treatments. Absorbance at 490 nm is directly correlated to cell viability. Wild type functional SALL4 peptide (wt), mutant non-functional SALL4 peptide (Mut.), trichostatin A (TSA), scrambled control peptide (Scr.), wild type peptide+PTEN inhibitor SF1670 (wt+Inh.) were given to the cells at the indicated concentration. PTEN inhibitor concentration was 400 nM. (31C, 31D) Western blot analyses of the effects of peptides on PTEN, AKT, and pAKT expression on SNU-398 (31C) and SNU-387 (31D) cells 72 hours following peptide treatments. 20 μM of wt or Scr. peptide or 100 nM of TSA was used. PTEN inhibitor concentration was 400 nM. (31E) Representative images show NOD/SCID mice transplanted with Scr peptide- and wt peptide-treated SNU-398 cells (left) and the dissected subcutaneous tumors (right). Arrow indicates subcutaneous tumor. (31F) Growth curve of subcutaneous tumors (left panel) and tumor weight of tumors dissected at day 26 post-transplantation (right panel). Results are mean±s.d. n=5; * P<0.05. (31G) Representative images show NOD/SCID mice transplanted with 3 million SNU-398 cells at the left flank and treated intraperitoneally for five consecutive days with 56 mg/kg body weight TAT-Mut. peptide or 60 mg/kg body weight wt peptide (top panel) and the dissected subcutaneous tumors (bottom). (31H) Tumor weight of tumors dissected at day 18 post-transplantation and post-treatment of mice treated intraperitoneally with TAT fusion peptides as described in 5 g. Results are mean±s.d. n=5; * P<0.05.
(§1) Cell viability assay (MTT) (Invitrogen) was performed according to the manufacturer's instructions. Briefly—10000 cells were seeded in 100 ul medium in 96 well plates. The next day cells were treated as indicated on the figures. At the designated time after the treatment 20 ul of 5 mg/ml MTT solution was added to each well. After 3.5 h incubation at 37 C the medium was removed and the reaction was terminated with a solution of 4 mM HCl, 0.1% Nondet P-40 (NP40) all in isopropanol in dark on orbital shaker for […]. at room temperature. The absorbance was read at 590 nm with a reference filter of 620 nm in Spectromax M3 (ABI) spectrophotometer.
Multiple leukemic and solid tumor cancer cell lines with high or low/no SALL4 expression (FIG. 10A) were chosen to test the biological effect(s) of the wild type peptide. Wild type or scrambled peptide was delivered into tumor cells at various concentrations, and their effects on cells were evaluated 72 hours post-treatment by the MTS cell viability assay. […] The effect of wild type peptide is SALL4-specific, as it had no effect on KBM5, an AML cell line with undetectable endogenous SALL4 expression. We were surprised to see that the wild type peptide had no effect on a high SALL4-expressing endometrioid cancer cell line, AN3CA. This prompted checking whether PTEN, a gene repressed by SALL4 through its interaction with NuRD 27, was present in this cell line. According to the model herein, the function of wild type peptide requires both the expression of SALL4 and intact SALL4 downstream target genes, such as PTEN. In tumor cells with PTEN deletion, even though wild type peptide could compete with endogenous SALL4 in interacting with the HDAC complex, an anti-proliferative effect might not be observed. Therefore, expression of PTEN was evaluated in AN3CA cells along with other cell lines. While PTEN protein was present in all the other cell lines, it was absent in AN3CA cells (FIG. 10C), with reported deletion mutation of the gene in this cell line 40,41. […] Furthermore, the anti-proliferative effect also required certain downstream targets, such as PTEN.
7000 cells were seeded in each wells of a microtiter plate in 100 μL of complete medium. Cells from each treatment were seeded in duplicate. Controls using the same medium without cells were set up in parallel. […]

[3] = system: HuH-7 cells; experiment: Cell viability assay (MTT/MTS); conditions: HuH-7, 72 h
Protocol: as §1
Multiple leukemic and solid tumor cancer cell lines with high or low/no SALL4 expression (FIG. 10A) were chosen to test the biological effect(s) of the wild type peptide. Wild type or scrambled peptide was delivered into tumor cells at various concentrations, and their effects on cells were evaluated 72 hours post-treatment by the MTS cell viability assay. […] The effect of wild type peptide is SALL4-specific, as it had no effect on KBM5, an AML cell line with undetectable endogenous SALL4 expression. We were surprised to see that the wild type peptide had no effect on a high SALL4-expressing endometrioid cancer cell line, AN3CA. This prompted checking whether PTEN, a gene repressed by SALL4 through its interaction with NuRD 27, was present in this cell line. According to the model herein, the function of wild type peptide requires both the expression of SALL4 and intact SALL4 downstream target genes, such as PTEN. In tumor cells with PTEN deletion, even though wild type peptide could compete with endogenous SALL4 in interacting with the HDAC complex, an anti-proliferative effect might not be observed. Therefore, expression of PTEN was evaluated in AN3CA cells along with other cell lines. […]
7000 cells were seeded in each wells of a microtiter plate in 100 μL of complete medium. […] After four hours incubation of the tetrazolium salt, absorbance at 490 nm was read by a microplate reader.

[4] = system: HL-60 cells; experiment: Cell viability assay (MTT/MTS); conditions: HL-60, 48-72 h
Protocol: FIG. 17: SALL4 peptide reduces the viability of leukemic HL-60 cells. HL60 human acute promyelocytic leukemia cells (ATCC), were cultured in RPMI medium with 10% FBS (Invitrogen). 5000 cells/well were seeded in 96 well plate. Peptides: MSRRKQAKPQHI-wt (SEQ ID NO: 1) and MSRRAQAKPQHI-mutant (SEQ ID NO: 6) were synthesized by Biosynthesis Inc. to 85% purity. Peptides and TSA were re-suspended in PBS and added to the final concentration as indicated. WT peptide was re-added 24 hours after the initial addition as indicated. Experiment was performed in triplicate. MTS assay was performed by adding 20 ul of the CellTiter 96® AQueous One Solution Reagent (Promega) directly to the cells in medium, incubating for 2 hours and then recording absorbance at 490 nm with a 96-well plate reader. The quantity of formazan product as measured by the amount of 490 nm absorbance is directly proportional to the number of living cells in culture.
as §1
Multiple cell lines with or without SALL4 expression were chosen to test the biological effect(s) of this wt peptide. Wt or its control (Scr or Mut) peptide was delivered into tumor cells at various concentrations, and their effects on cells were evaluated at 48 or 72 hours post treatment by a MTT assay (Manufacture name). […] Since, as proposed herein, wt peptide can compete with SALL4 and release it from recruiting HDAC complex NuRD, the wt peptide would likely work as a HDAC inhibitor. Therefore, as a positive control, TSA, a broad HDAC inhibitor, was used in the same group of experiments along with the wt and Scr peptide.
Multiple leukemic and solid tumor cancer cell lines with high or low/no SALL4 expression (FIG. 10A) were chosen to test the biological effect(s) of the wild type peptide. Wild type or scrambled peptide was delivered into tumor cells at various concentrations, and their effects on cells were evaluated 72 hours post-treatment by the MTS cell viability assay. […] The effect of wild type peptide is SALL4-specific, as it had no effect on KBM5, an AML cell line with undetectable endogenous SALL4 expression. […] Therefore, expression of PTEN was evaluated in AN3CA cells along with other cell lines. […]

Row | Compound | c-Myc protein expression [1] | cell viability / number of viable cells [2] | cell viability [3] | cell viability [4] | cell viability upon SALL4 knockdown [2] | cell viability upon SALL4 knockdown ([2]; listed as E5) | cell viability / number of viable cells ([2]; listed as SALL4 peptide (wt)) | cell viability / number of viable cells ([2]; listed as wild type peptide) | cell viability ([3]; listed as wild type peptide) | cell viability ([4]; listed as WT) | cell viability ([4]; listed as wild type peptide)
1 | Scr peptide: same 12 amino acids as the wt peptide, but in a scrambled sequence; negative control (SRMRQKIHPKIQ) [reference compound] | No change | remained unaffected | remained unaffected | remained unaffected | – | – | – | – | – | – | –
2 | CTATTTAGCCAAAGGCAAA (short hairpin RNA, chemistry and delivery not given here, further chemistry not given here) [E5 shRNA] | – | – | – | – | number of viable cells decreased | decreased cell viability | – | – | – | – | –
3 | H-MSRRKQAKPQHI-OH [wt peptide, MSRRKQAKPQHI] | No change | decreased cell viability; also recorded: reduced the amount of living cells in dose dependent manner | reduced the cell viability | decreased cell viability | – | – | the number of viable cells was reduced | decreased cell viability | decreased cell viability | decrease in cell viability | decreased cell viability; also recorded: reduces the number of the living cells
4 | CC(/C=C/C(=O)NO)=C\[C@@H](C)C(=O)c1ccc(N(C)C)cc1 [TSA, Trichostatin A, reference compound] | No change | effectively induced reduction in the number of viable HCC cells | – | – | – | – | – | – | – | – | –
